{"source": "ChEMBL document CHEMBL1151812", "about": "“Homotyrosine-containing cyanopeptolins 880 and 960 and anabaenopeptins 908 and 915 from Planktothrix agardhii CYA 126/8” (J Nat Prod, 2009)", "key": {"[1]": {"target": "T1, Carboxypeptidase A1 (Homo sapiens) (UniProt P15085)", "T1 sequence (whole entry)": "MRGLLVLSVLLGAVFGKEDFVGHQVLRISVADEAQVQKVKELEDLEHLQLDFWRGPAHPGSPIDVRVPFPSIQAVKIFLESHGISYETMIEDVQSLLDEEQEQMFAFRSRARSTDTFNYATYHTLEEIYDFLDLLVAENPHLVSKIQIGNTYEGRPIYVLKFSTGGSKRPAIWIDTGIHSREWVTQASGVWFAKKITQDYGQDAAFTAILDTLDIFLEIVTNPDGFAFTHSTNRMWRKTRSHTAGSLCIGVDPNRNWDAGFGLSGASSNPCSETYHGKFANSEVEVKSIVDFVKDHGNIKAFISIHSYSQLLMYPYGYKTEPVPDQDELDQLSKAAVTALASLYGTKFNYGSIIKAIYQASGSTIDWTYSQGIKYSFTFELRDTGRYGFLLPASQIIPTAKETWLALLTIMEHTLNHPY", "assay": "Inhibition of carboxypeptidase A up to 20 ug/ml"}, "[2]": {"assay": "Inhibition of trypsin up to 100 ug/ml"}, "[3]": {"assay": "Inhibition of chymotrypsin up to 100 ug/ml"}, "Carboxypeptidase A1": {"target": "T2, Carboxypeptidase A1 (Homo sapiens, UniProt P15085)", "T2 sequence (P15085 whole entry)": "T1 sequence (whole entry)", "assay": "Inhibition of carboxypeptidase A"}}, "note": "Activity calls are given as the source filed them. No cut-off for these calls is given here. Numbered stars: 1 amine (or outer) side, 2 acyl side, 3 side chain; on linkers, the order of the positions; unused ones are H or OH. Bridge positions count the residues as written; N and C are the ends. Square brackets hold non-standard residues; d marks the D form. Peptide text beside a SMILES is read from it. NMehTyr = CN[C@@H](CCc1ccc(O)cc1)C(=O)O; hTyr = N[C@@H](CCc1ccc(O)cc1)C(=O)O; CO = O=C([*:1])[*:2]"}
{"compound": "CC[C@H](C)[C@@H]1NC(=O)[C@H](CCc2ccc(O)cc2)N(C)C(=O)[C@H](CCc2ccc(O)cc2)NC(=O)[C@H](C(C)C)NC(=O)[C@H](NC(=O)N[C@@H](CCCNC(=N)N)C(=O)O)CCCCNC1=O", "note": "({Arg-CO}-[dK]V[hTyr][NMehTyr]I; lactam 1-C)", "values": [{"measurement": "Activity", "setting": "[1]", "result": "inactive"}, {"measurement": "Activity", "setting": "[2]", "result": "inactive"}, {"measurement": "Activity", "setting": "[3]", "result": "inactive"}]}
{"compound": "CC[C@H](C)[C@@H]1NC(=O)[C@H](CCc2ccc(O)cc2)N(C)C(=O)[C@H](CCc2ccc(O)cc2)NC(=O)[C@H](C(C)C)NC(=O)[C@H](NC(=O)N[C@@H](Cc2ccc(O)cc2)C(=O)O)CCCCNC1=O", "note": "[ANABAENOPEPTIN 915] ({Tyr-CO}-[dK]V[hTyr][NMehTyr]I; lactam 1-C)", "values": [{"measurement": "IC50", "setting": "Carboxypeptidase A1", "result": 131, "unit": "nM"}, {"measurement": "Activity", "setting": "[2]", "result": "inactive"}, {"measurement": "Activity", "setting": "[3]", "result": "inactive"}]}
